{
  "source": "paper PMC5445237",
  "about": "(CPT: Pharmacometrics & Systems Pharmacology, 2017)",
  "key": {"[1]": {"assay": "Population pharmacokinetic analysis of apixaban", "assay_type": "in vivo, human", "settings": "for CL renal: male, human, plasma, oral"}, "[2]": {"assay": "Simulation of apixaban steady-state exposure in VTE treatment population", "parameters": "species or system human"}, "[3]": {"assay": "Exploratory exposure-response evaluation for bleeding and efficacy endpoints", "assay_type": "in vivo, human"}, "[4]": {"settings": "cited from earlier work; for increase in apixaban exposure: phase I study, regression analysis"}, "[5]": {"test_system": "cytochrome P450 3A4 (CYP3A4)", "settings": "minor contributions from CYP1A2, 2C8, 2C9, 2C19, 2J2; cited from earlier work"}, "[6]": {"settings": "cited from earlier work"}, "[7]": {"settings": "among 522 subjects from the acute VTE treatment studies"}},
  "note": "Where two headings read alike, the source gives them in different places.",
  "data": [
    {"smiles": "COc1ccc(-n2nc(C(N)=O)c3c2C(=O)N(c2ccc(N4CCCCC4=O)cc2)CC3)cc1", "note": "[apixaban, Apixaban]", "values": [
      {"measurement": "reduction in Vc/F vs 85 kg reference subject", "setting": "[1]; 50-kg subject", "result": 24, "unit": "%"},
      {"measurement": "increase in Vc/F vs 85 kg reference subject", "setting": "[1]; 120-kg subject", "result": 20, "unit": "%"},
      {"measurement": "impact on apixaban exposure", "setting": "[1]; age, sex, Asian race (also strong or moderate CYP3A4/P-gp inhibitors)", "result": "less than 25%"},
      {"measurement": "increase in AUC expected in severe renal impairment", "setting": "[1]; expected from 27% renal contribution, renal clearance close to zero", "result": "~40", "unit": "%"},
      {"measurement": "Asian subjects effect on CL/F (covariate parameter, fractional change)", "setting": "[1]; final model", "result": "−0.168"},
      {"measurement": "Female effect on CLNR/F (covariate parameter, fractional change)", "setting": "[1]; final model", "result": "−0.223"},
      {"measurement": "IIV (interindividual variability, CV%) of CL/F", "setting": "[1]; final model", "result": 33.1, "unit": "%"},
      {"measurement": "IIV (interindividual variability, CV%) of ka", "setting": "[1]; final model", "result": 50.2, "unit": "%"},
      {"measurement": "Q/F (apparent intercompartmental clearance)", "setting": "[1]; final model", "result": 1.62, "unit": "L/h"},
      {"measurement": "Vp/F (apparent volume of peripheral compartment)", "setting": "[1]; final model", "result": 19.8, "unit": "L"},
      {"measurement": "Vc/F (apparent volume of central compartment)", "setting": "[1]; final model, reference VTE treatment subject", "result": 32.1, "unit": "L"},
      {"measurement": "ka, an evening dose", "setting": "[1]; final population PK model, evening dose", "result": 0.239, "unit": "h⁻¹"},
      {"measurement": "ka", "setting": "[1]; final population PK model, morning or afternoon dose", "result": 0.440, "unit": "h⁻¹"},
      {"measurement": "CL renal", "setting": "[1]; CLNR/F (apparent nonrenal clearance), final model, reference VTE treatment subject", "result": 42, "unit": "mL/min"},
      {"measurement": "CL renal", "setting": "[1]; CLR/F (apparent renal clearance), final model, reference VTE treatment subject (60 years, non-Asian male, 85 kg, cCrCL 100 mL/min)", "result": 30.5, "unit": "mL/min"},
      {"measurement": "lower daily AUC vs 60-year-old reference subject", "setting": "[1]; predicted, 40-year-old male, no change in apparent renal clearance", "result": "~6", "unit": "%"},
      {"measurement": "higher daily AUC vs 60-year-old reference subject", "setting": "[1]; predicted, 80-year-old male, no change in apparent renal clearance", "result": 5, "unit": "%"},
      {"measurement": "higher AUC compared to non-Asian subjects", "setting": "[1]; predicted, Asian subjects", "result": 20, "unit": "%"},
      {"measurement": "higher AUC than male subjects", "setting": "[1]; predicted, female subjects", "result": "~15", "unit": "%"},
      {"measurement": "higher AUC than reference subject with normal renal function", "setting": "[1]; predicted, mild renal impairment (cCrCL of 65 mL/min)", "result": "~17", "unit": "%"},
      {"measurement": "higher AUC (exposure) than reference subject", "setting": "[1]; predicted, severe renal impairment (cCrCL of 15 mL/min)", "result": 56, "unit": "%"},
      {"measurement": "decrease in CL/F", "setting": "[1]; severe renal impairment", "result": 36, "unit": "%"},
      {"measurement": "predicted median daily AUCss lower than in NVAF subjects", "setting": "[2]; 5-mg b.i.d., VTE treatment population vs NVAF subjects", "result": "about 25%"},
      {"measurement": "fluctuation between peak and trough concentrations", "setting": "[2]; predicted, VTE treatment subjects", "result": "~2", "unit": "fold"},
      {"measurement": "bleeding events (major or clinically relevant nonmajor)", "setting": "[3]; among 178 subjects from the AMPLIFY-EXT study", "result": "eight"},
      {"measurement": "VTE/VTE-related death events", "setting": "[3]; [7]", "result": "five"},
      {"measurement": "bleeding events (major or clinically relevant nonmajor)", "setting": "[3]; [7]", "result": 25},
      {"measurement": "half-life", "setting": "[4]", "result": "~12", "unit": "h"},
      {"measurement": "lower CL/F, NVAF subjects compared to phase I subjects", "setting": "[4]", "result": 14, "unit": "%"},
      {"measurement": "oral bioavailability", "setting": "[4]", "result": "~50", "unit": "%"},
      {"measurement": "renal clearance as share of total systemic clearance", "setting": "[4]", "result": "~27", "unit": "%"},
      {"measurement": "volume of distribution from phase I studies", "setting": "[4]", "result": "~21", "unit": "L"},
      {"measurement": "decrease in exposure after coadministration with rifampin", "setting": "[4]; healthy subjects, strong inducer of CYP3A4 and P-gp", "result": 50, "unit": "%"},
      {"measurement": "increase in exposure after coadministration with ketoconazole", "setting": "[4]; healthy subjects, strong inhibitor of CYP3A4 and P-gp", "result": 2, "unit": "fold"},
      {"measurement": "predicted median daily AUCss in NVAF subjects", "setting": "[4]; nonvalvular atrial fibrillation subjects, 5 mg b.i.d.", "result": "3,280 ng*hr/mL"},
      {"measurement": "exposure higher following coadministration with ketoconazole than apixaban alone", "setting": "[4]; phase I clinical studies", "result": "~100", "unit": "%"},
      {"measurement": "higher AUC, females compared to males", "setting": "[4]; phase I studies", "result": 15, "unit": "%"},
      {"measurement": "higher AUC, older subjects (>=65 years) compared to younger subjects (18-40 years)", "setting": "[4]; phase I studies", "result": 32, "unit": "%"},
      {"measurement": "increase in apixaban exposure", "setting": "[4]; mild renal impairment", "result": "~16", "unit": "%"},
      {"measurement": "increase in apixaban exposure", "setting": "[4]; moderate renal impairment", "result": "~29", "unit": "%"},
      {"measurement": "increase in apixaban exposure", "setting": "[4]; severe renal impairment", "result": "~44", "unit": "%"},
      {"measurement": "metabolism by CYP3A4", "setting": "[5]", "result": "predominantly metabolized"},
      {"measurement": "adjudicated major bleeding (primary safety endpoint) vs enoxaparin/warfarin", "setting": "[6]; AMPLIFY study", "result": "statistically superior"},
      {"measurement": "number of major bleeding events, apixaban and placebo groups", "setting": "[6]; AMPLIFY-EXT", "result": "low and similar"}
    ]}
  ]
}
